Patent US10919938B2, “Modified cyclopentapeptides and uses thereof” (TECHNISCHE UNIVERSITÄT MÜNCHEN, priority 2014, dated 2021)
Read-outs that look alike come from different tables or passages of the source. Each block holds one compound with its values, some of them ahead of it. Non-standard residues stand in square brackets, D forms with d. Residues, ends and D or L forms follow the SMILES beside them. Groups on a side chain read outwards from the residue. *: point of attachment. DOTA(Ga) = O=C1CN2CCN3CCN(CC(=O)*)CCN(CC2)CC(=O)[O][Ga]([O]1)[O]C(=O)C3; DOTA = O=C(O)CN1CCN(CC(=O)O)CCN(CC(=O)*)CCN(CC(=O)O)CC1; 2Nal = N[C@@H](Cc1ccc2ccccc2c1)C(=O)O; dNMeOrn = CN[C@H](CCCN)C(=O)O; 4Amb = NCc1ccc(C(=O)O)cc1; 4Abz = Nc1ccc(C(=O)O)cc1; Ahx = NCCCCCC(=O)O

What was measured:
[1] = Determination of lipophilicity (octanol/PBS partition); assay type: physicochemical; details: octanol / PBS pH 7.4, radiolabeled peptide
Method: To a solution of app. 2 kBq of radiolabeled peptide in 500 tiL of PBS (pH 7.4), 500 μL of octanol were added (n=6). Vials were vortexed vigorously for 3 min. To achieve quantitative phase separation, the vials were centrifuged at 14,000×g for 6 min in a Biofuge 15 (Heraeus Sepatech, Osterode, Germany). The activity concentrations in 100 μL-samples of both the aqueous and the organic phase were measured in a γ-counter. Both the partition coefficient Pow, which is defined as the molar concentration ratio of a single species A between octanol and an aqueous phase at equilibrium, and log Pow, which is an important parameter used to characterize lipophilicity of a compound, were calculated.

[2] = target: T1, hCXCR4 (Homo sapiens, UniProt P61073); assay: Determination of IC50: competition against [^125I]FC-131 on Jurkat cells; assay type: binding; details: hCXCR4-expressing Jurkat T-cell leukemia cells, [^125I]FC-131 as radioligand, mean ± SD
T1 construct: endogenous in cells; host or cells: Jurkat human T lymphocyte cells
T1 sequence (P61073 whole entry): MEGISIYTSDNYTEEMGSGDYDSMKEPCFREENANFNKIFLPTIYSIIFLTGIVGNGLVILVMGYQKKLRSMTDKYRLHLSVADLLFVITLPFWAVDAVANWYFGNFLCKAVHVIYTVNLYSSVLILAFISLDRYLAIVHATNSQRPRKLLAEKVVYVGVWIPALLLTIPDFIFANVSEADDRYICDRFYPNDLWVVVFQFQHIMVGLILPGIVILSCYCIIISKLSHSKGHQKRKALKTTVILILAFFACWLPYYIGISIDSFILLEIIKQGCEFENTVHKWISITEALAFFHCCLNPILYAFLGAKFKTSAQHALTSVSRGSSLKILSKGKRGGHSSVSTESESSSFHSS
Method: (§1) After washing twice with 400 piL of cold PBS, the amount of bound radioligand was quantified using a γ-counter. Nonspecific binding was determined in the presence of 1 μM FC131. IC50 values were calculated using the PRISM 4 program (Graph Pad Software, San Diego, Calif.).

[3] = tested on: Jurkat cells; assay: Dual tracer internalization study (suspension cells), Jurkat; assay type: cell-based, human
Method: (§2) The total sample volume was 250 μL. After incubation, the tubes were centrifuged (3 min, 1300 rcf, Megafuge 1.0, Heraeus Thermo Scientific), the supernatant was carefully removed and combined with 200 μL of ice cold HBSS used for washing the cells (free radioligand). To remove surface bound (acid releasable) radioactivity, cells were then washed twice with ice cold acid wash buffer (0.02 M NaOAc in saline buffered with AcOH to pH=5). Finally, the amount of internalized activity in the cell pellet as well as the fraction of free and acid releasable ^68Ga-activity were determined using a γ-counter.

[4] = tested on: Daudi cells; assay: Dual tracer internalization study (suspension cells), Daudi; assay type: cell-based, human; details: 30 min, 37° C., corrected for non-specific binding (100 μM AMD3100)
Method: as §2

[5] = tested on: SUDHL-8 cells; assay: Dual tracer internalization study (suspension cells), SUDHL-8; assay type: cell-based, human; details: SUDHL-8, 30 min, 37° C., corrected for non-specific binding (100 μM AMD3100)
Method: as §2

[6] = tested on: HT-29 cells; assay: Dual tracer internalization study (adherent cells), HT-29; assay type: cell-based, human; details: HT-29, 30 min, 37° C., corrected for non-specific binding (100 μM AMD3100)
Method: (§3) 2·10^5 cells per well. On the day of the experiment, the culture medium was removed and the cells were washed once with 250 μL of unsupplemented medium before being left to equilibrate in 200 μL of assay medium at 37° C. for a minimum of 15 min before the experiment. […] (n=3 wells, respectively, per time point). Incubation was terminated by placing the plate on an ice pack for app. 1 min and by subsequent removal of the incubation medium. Cells were thoroughly rinsed with 250 μL of HBSS. After washing twice with 250 μL of ice cold acid wash buffer (0.02 M NaOAc buffered with AcOH to pH=5), cells were lysed with 250 μL of 1 N NaOH. The lysate was transferred to vials and combined with 250 μL of HBSS used for rinsing the wells. Quantification of the amount of free, acid-releasable and internalized activity was performed as described.

[7] = tested on: SH-SY5Y cells; assay: Dual tracer internalization study (adherent cells), SH-SY5Y; assay type: cell-based, human; details: 30 min, 37° C., corrected for non-specific binding (100 μM AMD3100)
Method: as §3

[8] = tested on: MCF-7 cells; assay: Dual tracer internalization study (adherent cells), MCF-7; assay type: cell-based, human; details: MCF-7, 30 min, 37° C., corrected for non-specific binding (100 μM AMD3100)
Method: as §3

[9] = tested on: DU-145 cells; assay: Dual tracer internalization study (adherent cells), DU-145; assay type: cell-based, human; details: DU-145, 30 min, 37° C., corrected for non-specific binding (100 μM AMD3100)
Method: as §3

[10] = tested on: Jurkat cells; assay: Dual tracer externalization study (suspension cells), Jurkat; assay type: cell-based, human
Method: (§4) To ensure receptor integrity, no acid wash was performed after this initial internalization incubation. Then, to determine the extent of ligand recycling, two different experiments were performed. In the experiment allowing ligand recycling, 250 μL of assay medium were added to each well. […] Experiments were carried out in triplicate for both experimental conditions. Subsequently, the cells were incubated for 5, 15, 30 and 60 minutes at 37° C. Then, the tubes were centrifuged, the supernatant was removed and combined with 250 μL of HBSS used for washing the cells. This fraction represents the amount of externalized ligand. The following steps, i.e. acid wash and quantification of the remaining cellular activity, were performed as described for the internalization experiment.

[11] = tested on: Daudi cells; assay: Dual tracer externalization study (suspension cells), Daudi; assay type: cell-based, human
Method: as §4

[12] = tested on: HT-29 cells; assay: Dual tracer externalization study (adherent cells), HT-29; assay type: cell-based, human
Method: (§5) In the experiment allowing ligand recycling 250 µL of assay medium were added to the wells (n=3). […] Subsequently, cells were incubated at 37° C. for 5, 15, 30 and 60 min, respectively. The supernatant was removed and combined with 250 μL of HBSS used for rinsing the cells. This fraction represents the amount of externalized ligand at the respective time point. The following lysis of the cells was performed as desribed for the internalization experiment.

[13] = tested on: SH-SY5Y cells; assay: Dual tracer externalization study (adherent cells), SH-SY5Y; assay type: cell-based, human
Method: as §5

[14] = tested on: MCF-7 cells; assay: Dual tracer externalization study (adherent cells), MCF-7; assay type: cell-based, human
Method: as §5

[15] = tested on: CXCR4 expressing cell lines; assay: Dual tracer internalization studies in various human cancer cell lines; assay type: cell-based; details: in all cell lines
Method: as §2
as §3, with “The lysate was transferred to vials and combined with 250 μL of HBSS used for rinsing the wells.” left out

[16] = tested on: Daudi (high CXCR4) and SU-DHL-8 (low CXCR4) xenografts; details: mouse, in vivo, iv
Method: (§6) For the induction of tumor growth, female CB-17 SCID mice (6-8 weeks, Charles River, Sulzfeld, Germany) were injected subcutaneously with app. 5×10^6 Daudi (right shoulder) or SU-DHL-8 (left shoulder) cells suspended in 100 μL of a 1:1 (v/v) mixture of serum free culture medium and Matrigel (BD Biosciences, Heidelberg, Germany). Within 10-21 days, solid palpable tumors had grown (100-800 mg), and the animals were used for the experiments.
(§7) The animals were sacrificed 90 min post injection (p.i.), and the organs of interest were dissected. The radioactivity was measured in weighted tissue samples using a γ-counter. Data are expressed in % ID/g tissue (mean±SD).

[17] = tested on: Daudi (high CXCR4) and SU-DHL-8 (low CXCR4) xenografts; assay: Dual tracer biodistribution study in tumor bearing SCID mice; details: i.v., 1 h p.i.
Method: as §6, §7

[18] = target: T1, hCXCR4; assay: Determination of inverse IC50: radioiodinated peptides against standard competitor FC-131 on Jurkat cells; assay type: binding; details: combining IC50 and inverse IC50 assays
Method: as §1
Experiments were performed in analogy the determination of IC50.

[19] = target: T1, hCXCR4; details: stated in text as had been shown; cited from earlier work
[20] = recycling allowed (medium only)
[21] = recycling inhibited (100 μM AMD3100)

Compound: yorn′(ABS, Ahx, DOTA, In)RNalG
IC50 [2]: 26.5 ± 22.6 nM

Compound: CN1C(=O)[C@@H](Cc2ccc(O)cc2)NC(=O)CNC(=O)[C@H](Cc2ccc3ccccc3c2)NC(=O)[C@H](CCCNC(=N)N)NC(=O)[C@H]1CCCNC(=O)c1ccc(NC(=O)CCCCCNC(=O)CN2CCN3CCN4CCN(CC2)CC(=O)[O][Ga]([O]C(=O)C3)[O]C(=O)C4)cc1 [yorn′(ABS, Ahx, DOTA, Ga)RNalG] (cyclo([2Nal]G[dY][dNMeOrn]([4Abz-Ahx-DOTA(Ga)])R))
IC50 [2]: 30.3 ± 6.52 nM

Compound: yorn′(DOTA, In)RNalG
IC50 [2]: > 1000 nM

Compound: yorn′(AMBS, DOTA, In)RNalG
IC50 [2]: 44.9 ± 10.4 nM

Compound: CN1C(=O)[C@@H](Cc2ccc(O)cc2)NC(=O)CNC(=O)[C@H](Cc2ccc3ccccc3c2)NC(=O)[C@H](CCCNC(=N)N)NC(=O)[C@H]1CCCNC(=O)c1ccc(CNC(=O)CN2CCN(CC(=O)O)CCN(CC(=O)O)CCN(CC(=O)O)CC2)cc1 [yorn′(AMBS, DOTA, ^68Ga)RNalG, metal not drawn] (cyclo([dY][dNMeOrn]([4Amb-DOTA])R[2Nal]G))
tumor-to-non-tumor ratios (in words) [17]: comparable

Compound: CN1C(=O)[C@@H](Cc2ccc(O)cc2)NC(=O)CNC(=O)[C@H](Cc2ccc3ccccc3c2)NC(=O)[C@H](CCCNC(=N)N)NC(=O)[C@H]1CCCNC(=O)c1ccc(CNC(=O)CN2CCN3CCN4CCN(CC2)CC(=O)[O][Ga]([O]C(=O)C3)[O]C(=O)C4)cc1 [yorn′(AMBS, DOTA, Ga)RNalG] (cyclo([2Nal]G[dY][dNMeOrn]([4Amb-DOTA(Ga)])R))
increase in CXCR4 affinity by (radio)iodination, factor [18]: ~20

Compound: yorn′(ABS, G, DOTA, Ga)RNalG
IC50 [2]: 16.7 ± 3.28 nM

Compound: 3-iodo-D-Tyr^1-FC-131
IC50 [19]: 1.3 nM

Compound: [^125I]yorn′(AMBS, DOTA, Lu)RNalG
Log PO/PBS [1]: −1.38

The next lines start with results.

Log PO/PBS [1]: −0.35
Compound: cyclo(-D-Tyr^1[^125I]-Arg^2-Arg^3-Na1^4-Gly^5 [[^125I]FC-131, reference compound]

Log PO/PBS [1]: −1.39
Compound: [^125I]yorn′(AMBS, DOTA, In)RNalG

Log PO/PBS [1]: −1.28
Compound: [^125I]yorn′(ABS, G, DOTA, Lu)RNalG

Log PO/PBS [1]: −1.37
Compound: [^125I]yorn′(ABS, DOTA, In)RNalG

Log PO/PBS [1]: −1.56
tumor-to-non-tumor ratios (in words) [16]: comparable
Compound: [^125I]yorn′(AMBS, DOTA, Ga)RNalG
fraction of membrane bound activity versus internalized activity (in words) ([3]; Jurkat cells, comparable for the other cell lines): considerably higher
Internalization efficiency (internalized activity in % of total cellular activity) ([3]; Jurkat, 30 min, 37° C., corrected for non-specific binding (100 μM AMD3100)): 27.4 ± 2.0 % of total cellular activity
Internalization efficiency (internalized activity in % of total cellular activity) [4]: 51.3 ± 4.4 % of total cellular activity
Internalization efficiency (internalized activity in % of total cellular activity) [5]: 29.9 ± 5.2 % of total cellular activity
Internalization efficiency (internalized activity in % of total cellular activity) [6]: 77.9 ± 4.6 % of total cellular activity
Internalization efficiency (internalized activity in % of total cellular activity) [7]: 57.3 ± 7.1 % of total cellular activity
Internalization efficiency (internalized activity in % of total cellular activity) [8]: 37.6 ± 3.7 % of total cellular activity
Internalization efficiency (internalized activity in % of total cellular activity) [9]: 69.1 ± 18.2 % of total cellular activity
Residual internalized activity after a 60 min externalization incubation [10, 20]: 8.0 ± 2.0 % of total cellular activity at t = 0
Residual internalized activity after a 60 min externalization incubation [10, 21]: 3.7 ± 1.3 % of total cellular activity at t = 0
Residual internalized activity after a 60 min externalization incubation [11, 20]: 14.5 ± 2.0 % of total cellular activity at t = 0
Residual internalized activity after a 60 min externalization incubation [11, 21]: 7.0 ± 0.5 % of total cellular activity at t = 0
Residual internalized activity after a 60 min externalization incubation ([12]; HT-29, recycling allowed (medium only)): 13.5 ± 2.6 % of total cellular activity at t = 0
Residual internalized activity after a 60 min externalization incubation ([12]; HT-29, recycling inhibited (100 μM AMD3100)): 10.5 ± 2.5 % of total cellular activity at t = 0
ligand recycling (in words) ([12]; HT-29 cells, nearly identical results for the other cell lines): almost no ligand recycling
Residual internalized activity after a 60 min externalization incubation [13, 20]: 11.2 ± 2.5 % of total cellular activity at t = 0
Residual internalized activity after a 60 min externalization incubation [13, 21]: 7.8 ± 1.0 % of total cellular activity at t = 0
Residual internalized activity after a 60 min externalization incubation ([14]; MCF-7, recycling allowed (medium only)): 10.4 ± 1.4 % of total cellular activity at t = 0
Residual internalized activity after a 60 min externalization incubation ([14]; MCF-7, recycling inhibited (100 μM AMD3100)): 8.7 ± 1.1 % of total cellular activity at t = 0
internalization compared to yorn′(AMBS, DOTA, ^68Ga)RNalG (in words) [15]: significantly higher internalization

Log PO/PBS [1]: −1.23
Compound: [^125I]yorn′(ABS, Avs, DOTA, Lu)RNalG
